Measured values taken from patent publication US20100261749A1, “METHOD OF PREVENTING OR AMELIORATING PSORIASIS USING PYRROLOQUINOLINE QUINONE COMPOUNDS” (KYOWA HAKKO BIO CO., LTD., priority 2007, published 2010).

Legend:
[1] = tested on: HOS: HR-1 mice; experiment: Skin moisture content (conductance) in dry skin mouse models, SKICON-200; format: in vivo; details: for Conductance (skin moisture content): specialty feed containing 0.0089% by weight PQQ disodium salt, group average
Method: (§1) For testing, HOS: HR-1 mice (female, 4 weeks old, purchased from Hoshino Laboratory Animmals, Inc.) were used. Mice were raised under conditions of a room temperature of 22±3° C. and a humidity of 50±25% while being fed with feed and water ad libitum.
(§2) Each test group consisted of 8 mice. The mice of the 1st group were fed with a commercially available powder feed product “CE-2.” The mice of the 2nd group were fed with a specialty feed product (produced by Nosan Corporation). The mice of the 3rd group were fed with a specialty feed product containing 0.0089% by weight of pyrroloquinoline quinone disodium salt (hereinafter referred to as PQQ disodium salt, produced by Mitsubishi Gas Chemical Company, Inc.). In addition, it has been known that HOS: HR-1 mice develop dry skin after being fed with the above specialty feed product (The Journal of international medical research pharmacology, 32, 392-399 (2004)).
In addition, the skin moisture content (conductance) was determined with SKICON-200 (produced by IBS) and the average value for each group was calculated. Table 2 lists results of determination of the skin moisture content from week 0 to week 6 after the initiation of the test.

[2] = tested on: HOS: HR-1 mice; experiment: Epidermis thickness, paraffin sections of mouse dorsal skin; format: in vivo
Method: as §1, §2
Paraffin sections of mouse dorsal skin fixed with neutral buffer containing 10 vol % formalin were prepared for the determination of epidermis thickness. Table 3 lists results of the determination of epidermis thickness 6 weeks after the initiation of the test.

[3] = tested on: CD3-positive T lymphocytes in the epidermis; experiment: Number of CD3-positive T lymphocytes in epidermis, anti-CD3 immunostaining; format: in vivo, mice
Method: as §1, §2
In addition, counting of the number of CD3-positive T lymphocytes in the epidermis was carried out with the use of anti-CD3 immunostained specimens. The counting area was the dermis located above the cutaneous muscle. The number of cells in the epidermis (per mm of the baseline) was obtained by dividing the determined cell number by the length of a straight line extending between both ends of the cutaneous muscle (baseline). […]

[4] = tested on: HOS: HR-1 mice; experiment: Transepidermal water loss (TEWL) in dry skin mouse models, Tewameter TM210; format: in vivo; details: for TEWL value: specialty feed containing 0.0089% by weight PQQ disodium salt, right buttock, group average
Method: as §1, §2
Upon the initiation of feeding with each feed product and 2, 4, and 6 weeks later, the transepidermal water loss (TEWL) of the right buttock of each mouse was determined with the use of a Tewameter TM210 (Courage+Khazaka electronic GmbH, Germany) and the average value for each group was calculated.

[5] = tested on: mast cells in dermis; experiment: Number of mast cells in dermis, May-Grunwald-Giemsa staining; format: in vivo, mice
Method: as §1, §2
The number of mast cells in dermis was determined with the use of May-Grunwald-Giemsa staining specimens. The counting area was the dermis located above the cutaneous muscle. The number of cells in the dermis (per 1 mm of the baseline) was obtained by dividing the determined cell number by the length of a straight line extending between both ends of the cutaneous muscle (baseline). […]

[6] = 3rd group versus 2nd group (specialty feed without PQQ disodium salt)
[7] = feeding period 0 weeks (initiation)
[8] = 3rd group versus 2nd group, 6 weeks
[9] = 6 weeks after initiation, specialty feed containing 0.0089% by weight PQQ disodium salt, *p < 0.05 for the 2nd group

Compound: O=C(O)c1cc(C(=O)O)c2c(n1)C(=O)C(=O)c1cc(C(=O)O)[nH]c1-2.[Na].[Na] [PQQ disodium salt, pyrroloquinoline quinone disodium salt]
- Skin moisture content (conductance), result in words [1, 6]: increased to a greater extent than that in the 2nd group
- Conductance (skin moisture content) [1, 7]: 414.55 μS
- Conductance (skin moisture content) ([1]; feeding period 2 weeks): 67.83 μS
- Conductance (skin moisture content) ([1]; feeding period 4 weeks): 41.95 μS
- Conductance (skin moisture content) ([1]; feeding period 6 weeks): 39.03 μS
- Epidermis thickening, result in words [2, 8]: epidermis thickening was suppressed
- Epidermis thickness ([2]; 6 weeks after initiation, dorsal skin, specialty feed containing 0.0089% by weight PQQ disodium salt): 64.03 μm
- Number of CD3-positive cells in the epidermis, result in words [3, 8]: the number of CD3-positive cells in the epidermis was suppressed
- Number of CD3-positive cells in epidermis per mm basal line [3, 9]: 18.95* cells/mm basal line
- Transepidermal water loss value (TEWL value), result in words [4, 6]: suppressed to a level lower than that in the 2nd group
- TEWL value [4, 7]: 4.94 g/m²/h
- TEWL value ([4]; feeding period 2 weeks): 17.9 g/m²/h
- TEWL value ([4]; feeding period 4 weeks): 27 g/m²/h
- TEWL value ([4]; feeding period 6 weeks): 29.9 g/m²/h
- Number of mast cells in the dermis, result in words [5, 8]: the number of mast cells in the dermis was suppressed
- Number of mast cells in dermis per mm basal line [5, 9]: 54.62* cells/mm basal line
